Experimental data reported in patent US10308640B2, “1,3-dihydroimidazole-2-thione derivatives for use in the treatment of pulmonary arterial hypertension and lung injury” (BIAL—PORTELA & CA S.A., priority 2012, dated 2019).

What was measured:
[1] = test system: Monocrotaline (MCT) lung injury model of Pulmonary Arterial Hypertension; test: Cardiac remodelling (organ weight ratios, Fulton index) in the MCT lung injury model of PAH; assay type: in vivo, rat; details: compared to MCT group; for right ventricular hypertrophy: 28 days
Source text: (§1) One of the most-used animal models is the Monocrotaline (MCT) lung injury model of Pulmonary Arterial Hypertension. Administration of MCT, that is metabolized in the liver to the reactive metabolite dehydromonocrotaline, results in a syndrome characterized by acute lung injury, interstitial pulmonary fibrosis, necrotizing pulmonary arteritis, pulmonary hypertension, right ventricular (RV) hypertrophy, myocarditis and hepatic venoocclusive disease.
(§2) The protocol to use is a standard one (Curr. Protoc. Pharmacol. 46:5.56.1-5.56.11(2009) John Wiley & Sons Inc). Rats, of 6-7 weeks old (150-200 g) are administered MCT 60 mg/kg subcutaneously, and the pathology usually develops in the course of initial 3 to 4 weeks with the animals dying within the next 2 weeks (5th-6th week). A decrease of 50% in food and water consumption is thought to be indicative of pathological status severe enough for testing.
(§3) The experimental details are described in more detail below; briefly, compounds were given to rats mixed with food starting, Compound B (30 mg/kg/day) for groups MCT+Compound B and SHAM+Compound B, bosentan (300 mg/kg/day) for group MCT+Bos300, bosentan (100 mg/kg/day) for group MCT+Bos100, Compound B+bosentan (30+100 mg/kg/day) for group MCT+Compound B+Bos100, and no compound for groups MCT and SHAM. Animals from groups MCT were administered MCT and animals from groups SHAM were administered vehicle. Twenty eight days later, surviving animals were sacrificed, tissues collected and weighed. During the entire experimental period food, water consumption and animal weight were monitored. The ratios organ weight to body weight (BW) were calculated to evaluate organ hypertrophy. The index of RV/LV+S was calculated as an index of RV hypertrophy. In each study an n=10 animals was used for each MCT treatment group, and an n=6 was used for the groups not given MCT. The animals from MCT+Bos300 group from Study 1 were not considered for the combined survival analysis since these unexpectedly presented a higher mortality effect as compared to the MCT group. The surviving animals from this group were nevertheless considered for the cardiac remodelling analysis.
All data is expressed as mean±sem (Standard Error of the Mean) unless otherwise indicated. Differences between treatment groups were analysed by one-way ANOVA and post-hoc Newman-Keuls multiple comparison test. P<0.05 was considered statistically significant.
On day 28 surviving animals were sacrificed and the following tissues/organs collected and weighed: liver, kidney, lung, heart and spleen. Femurs were removed and measured. Heart was dissected into right ventricle, left ventricle+septum and these were also weighed. The ratio organ to body weight (BW) was calculated as well as the ratio organ weight to femur length. The index of RV/LV+S is an index of RV hypertrophy. Catecholamines were evaluated only on right ventricle and left ventricle+septum.
Whole spleen, whole liver, left kidney and lungs were removed, cleaned and weighed. Heart was removed, cleaned from atria and vascular tissue and weighed. Right ventricle was then dissected from the rest of the heart (left ventricle +septum) and both were weighed and put in tubes containing 0.2 M PCA. Femurs were removed, cleaned and length measured with a calliper.
The ratios organ weight to body weight and organ weight to femur length were calculated as well as the ratio right ventricular weight to left ventricular+septum weight.
Organs weighed were: liver, kidney, lung, heart and spleen. Heart was dissected into right ventricle, left ventricle+septum and these were also weighed. The ratio organ to body weight (BW) was calculated as well as the ratio organ weight to femur length. The index of RV/LV+S is an index of RV hypertrophy.
Whole spleen, whole liver, both kidneys and lungs were removed, cleaned and weighed. Heart was removed, cleaned from atria and vascular tissue and weighed. […]

[2] = test system: Monocrotaline (MCT) lung injury model of Pulmonary Arterial Hypertension; test: Survival in the Monocrotaline (MCT) lung injury model of Pulmonary Arterial Hypertension (Kaplan-Meier curves, 28 days); assay type: in vivo, rat; details: MCT rats; for survival (survival curve): compared to MCT group
Source text: as §1, §2
Two studies were conducted separately and a combination analysis performed on the two studies. Each study consisted in the scheme represented in FIG. 1.
The experimental design of both studies was the same, with animals randomized in seven groups, five groups of 10 animals each (MCT, MCT+Bos300, MCT+Bos100, MCT+Compound B, MCT+Compound B+Bos100) and 2 groups of 6 animals each (SHAM and SHAM+Compound B).
as §3, with “In each study an n=10 animals was used for each MCT treatment group, and an n=6 was used for the groups not given MCT. The animals from MCT+Bos300 group from Study 1 were not considered for the combined survival analysis since these unexpectedly presented a higher mortality effect as compared to the MCT group. The surviving animals from this group were nevertheless considered for the cardiac remodelling analysis.” left out
Animals were given powdered food for an adaptation period of 3-5 days before treatment start. […] Food, water consumption and animal weight were monitored over the entire duration of the experiment.
Animals were given powdered food for an adaptation period of 3-5 days before treatment start. […] Animal weight, food and water consumption were evaluated twice a week and animals were regularly observed for any disease signs. Mortality was registered and on day 28 surviving animals were sacrificed, selected organs weighed and femurs removed and measured. […]

[3] = Compound B alone 30 mg/kg/day, 28 days after MCT
[4] = Bosentan 300 mg/kg/day, 28 days after MCT

SMILES | right ventricular hypertrophy ([1]; Compound B 30 mg/kg/day) | Fulton Index (RV/LV+S) [1, 3] | heart weight over bodyweight (BW) [1, 3] | right ventricle (RV) weight over bodyweight (BW) [1, 3] | survival (survival curve) ([2]; Compound B 30 mg/kg/day in food) | survival rates compared to the use of bosentan alone ([2]; Compound B alone 30 mg/kg/day) | Fulton Index (RV/LV+S) [1, 4] | right ventricle (RV) weight over bodyweight (BW) [1, 4] | right ventricular hypertrophy ([1]; bosentan 100 mg/kg/day (MCT+Bos100)) | right ventricular hypertrophy ([1]; bosentan 300 mg/kg/day (MCT+Bos300)) | survival (survival curve) ([2]; bosentan 100 mg/kg/day in food) | survival (survival curve) ([2]; bosentan 300 mg/kg/day in food)
Fc1cc(F)c2c(c1)C[C@@H](n1c(CCNCc3ccccc3)c[nH]c1=S)CO2 [Compound B, (R)-5-(2-(benzylamino)ethyl)-1-(6,8-difluorochroman-3-yl)-1H-imidazole-2(3H)-thione] | significant decreased | significantly decreased | significantly decreased | significantly decreased | slight increase in survival | greater survival rates | – | – | – | – | – | –
COc1ccccc1Oc1c(NS(=O)(=O)c2ccc(C(C)(C)C)cc2)nc(-c2ncccn2)nc1OCCO [bosentan, Bosentan] | – | – | – | – | – | – | significantly decreased | significantly decreased | significant decreased | marked and statistically significant decrease | No clear benefit | No clear benefit
